Source: patent publication US9090576B2, “2-substituted-p-quinone derivatives for treatment of oxidative stress diseases” (Edison Pharmaceuticals, Inc., priority 2008, dated 2015)

Assays:
Format in all cases: cell-based
[1] = system: Human dermal fibroblasts from Friedreich's Ataxia patients; assay: Rescue of BSO-stressed FRDA fibroblasts (Calcein AM viability); details: BSO-stressed FRDA fibroblasts (GM04078), less than about 150 nM, read-out: EC50, protection against FRDA
Summary of the method: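 Patient FRDA fibroblasts (GM04078) seeded at 3,000 cells/well, given serially diluted compound from a 150 μM master solution, then stressed next day with 1 mM BSO.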

[2] = system: human dermal fibroblasts from CoQ10 deficient patients; assay: Rescue of BSO-stressed fibroblasts from CoQ10 deficient patients (screen similar to Example A); details: Fibroblast, BSO-stressed fibroblasts from CoQ10 deficient patients harboring a CoQ2 mutation, less than about 150 nM, read-out: EC50, protection against CoQ10 deficiency
Protocol: (§1) A culture with FRDA fibroblasts was started from a 1 ml vial with approximately 500,000 cells stored in liquid nitrogen. Cells were propagated in 10 cm cell culture dishes by splitting every third day in a ratio of 1:3 until nine plates were available. Once confluent, fibroblasts were harvested. For 54 micro titer plates (96 well-MTP) a total of 14.3 million cells (passage eight) were re-suspended in 480 ml medium, corresponding to 100 μl medium with 3,000 cells/well. The remaining cells were distributed in 10 cm cell culture plates (500,000 cells/plate) for propagation. The plates were incubated overnight at 37° C. in an atmosphere with 95% humidity and 5% CO2 to allow attachment of the cells to the culture plate.
(§2) MTP medium (243 μl) was added to a well of the microtiter plate. The test compounds were unfrozen, and 7.5 μl of a 5 mM stock solution was dissolved in the well containing 243 μl medium, resulting in a 150 μM master solution. Serial dilutions from the master solution were made. The period between the single dilution steps was kept as short as possible (generally less than 1 second).
(§3) Plates were kept overnight in the cell culture incubator. The next day, 10 μl of a 10 mM BSO solution were added to the wells, resulting in a 1 mM final BSO concentration. Forty-eight hours later, three plates were examined under a phase-contrast microscope to verify that the cells in the 0% control (wells E1-H1) were clearly dead. The medium from all plates was discarded, and the remaining liquid was removed by gently tapping the plate inversed onto a paper towel.
(§4) 100 μl of PBS containing 1.2 μM Calcein AM were then added to each well. The plates were incubated for 50-70 minutes at room temperature. After that time the PBS was discarded, the plate gently tapped on a paper towel and fluorescence (excitation/emission wavelengths of 485 nm and 525 nm, respectively) was read on a Gemini fluorescence reader. Data was imported into Microsoft Excel (EXCEL is a registered trademark of Microsoft Corporation for a spreadsheet program) and used to calculate the EC50 concentration for each compound.
Compounds of the invention were tested using a screen similar to the one described in Example A, but substituting FRDA cells with cells obtained from CoQ10 deficient patients harboring a CoQ2 mutation. The compounds were tested for their ability to rescue human dermal fibroblasts from CoQ10 deficient patients from oxidative stress.

[3] = system: human dermal fibroblasts from LHON patients; assay: Rescue of BSO-stressed fibroblasts from LHON patients (screen as Example A); details: Fibroblast, BSO-stressed LHON fibroblasts (GM03858), less than about 150 nM, read-out: EC50, protection against LHON
Summary of the method: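 LHON patient fibroblasts (Coriell GM03858) at 3,000 cells/well were pre-treated overnight with compounds serially diluted from a 150 μM master solution. Surviving cells were stained with 1.2 μM Calcein AM for 50-70 min at RT and read by fluorescence (485/525 nm), giving EC50.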

[4] = system: human dermal fibroblasts from Parkinson's Disease patients; assay: Rescue of BSO-stressed fibroblasts from Parkinson's Disease patients (screen as Example A); details: Fibroblast, BSO-stressed Parkinson's Disease fibroblasts (AG20439), less than about 150 nM, read-out: EC50, protection against PD
Protocol: as §1, §2, §3, §4
Compounds of the invention were screened as described in Example A, but substituting FRDA cells with Parkinson's Disease (PD) cells obtained from the Coriell Cell Repositories (Camden, N.J.; repository number AG20439). The compounds were tested for their ability to rescue human dermal fibroblasts from Parkinson's Disease patients from oxidative stress.

[5] = system: human dermal fibroblasts from Huntington's patients; assay: Rescue of BSO-stressed fibroblasts from Huntington's patients (screen as Example A); details: Fibroblast, BSO-stressed Huntington's fibroblasts (GM 04281), less than about 150 nM, read-out: EC50, protection against Huntington's
Summary of the method: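 Coriell Huntington's line GM 04281 plated at 3,000 cells/well and attached overnight at 37 °C. Survival was read by Calcein AM (1.2 μM, 50-70 min, RT) fluorescence at 485/525 nm, giving EC50.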

Measured: EC50

CC1=C(C)C(=O)C(CCCC(=O)NCCc2ccccc2Cl)=C(C)C1=O [N-(2-chlorophenethyl)-4-(2,4,5-trimethyl-3,6-dioxocyclohexa-1,4-dienyl)butanamide]
< 150 nM: [1] | [2] | [3] | [4] | [5]

CC1=C(C)C(=O)C(CCCC(=O)Nc2ccccc2)=C(C)C1=O [N-phenyl-4-(2,4,5-trimethyl-3,6-dioxocyclohexa-1,4-dienyl)butanamide]
< 150 nM: [1] | [2] | [3] | [4] | [5]

CC1=C(C)C(=O)C(CCCC(=O)NCCc2cccc(F)c2)=C(C)C1=O [N-(3-fluorophenethyl)-4-(2,4,5-trimethyl-3,6-dioxocyclohexa-1,4-dienyl)butanamide]
< 150 nM: [1] | [2] | [3] | [4] | [5]

CC1=C(C)C(=O)C(CCCC(N)=O)=C(C)C1=O [4-(2,4,5-trimethyl-3,6-dioxocyclohexa-1,4-dienyl)butanamide]
< 150 nM: [1] | [2] | [3] | [4] | [5]

CC1=C(C)C(=O)C(CCCC(=O)Nc2ccc(C(F)(F)F)cc2)=C(C)C1=O [N-(4-(trifluoromethyl)phenyl)-4-(2,4,5-trimethyl-3,6-dioxocyclohexa-1,4-dienyl)butanamide]
< 150 nM: [1] | [2] | [3] | [4] | [5]

CC1=C(C)C(=O)C(CCCC(=O)N(C)c2ccccc2)=C(C)C1=O [N-methyl-N-phenyl-4-(2,4,5-trimethyl-3,6-dioxocyclohexa-1,4-dienyl)butanamide]
< 150 nM: [1] | [2] | [3] | [4] | [5]

CC1=C(C)C(=O)C(CCCC(=O)NCc2cccc(Cl)c2)=C(C)C1=O [N-(3-chlorobenzyl)-4-(2,4,5-trimethyl-3,6-dioxocyclohexa-1,4-dienyl)butanamide]
< 150 nM: [2] | [3] | [4] | [5]

CC1=C(C)C(=O)C(CCCC(=O)N(C)c2ccc(F)cc2)=C(C)C1=O [N-(4-fluorophenyl)-N-methyl-4-(2,4,5-trimethyl-3,6-dioxocyclohexa-1,4-dienyl)butanamide]
< 150 nM: [1] | [2] | [3] | [4] | [5]

CC1=C(C)C(=O)C(CCCC(=O)Nc2ccccc2Cl)=C(C)C1=O [N-(2-chlorophenyl)-4-(2,4,5-trimethyl-3,6-dioxocyclohexa-1,4-dienyl)butanamide]
< 150 nM: [1] | [2] | [3] | [4] | [5]

CC1=C(C)C(=O)C(CCCC(=O)Nc2ccc(C#N)cc2)=C(C)C1=O [N-(4-cyanophenyl)-4-(2,4,5-trimethyl-3,6-dioxocyclohexa-1,4-dienyl)butanamide]
< 150 nM: [1] | [2] | [3] | [4] | [5]

CC1=C(C)C(=O)C(CCCC(=O)NCCc2ccccc2F)=C(C)C1=O [N-(2-fluorophenethyl)-4-(2,4,5-trimethyl-3,6-dioxocyclohexa-1,4-dienyl)butanamide]
< 150 nM: [1] | [2] | [3] | [4] | [5]

CC1=C(C)C(=O)C(CCCC(=O)N(Cc2ccccc2)C(C)C)=C(C)C1=O [N-benzyl-N-isopropyl-4-(2,4,5-trimethyl-3,6-dioxocyclohexa-1,4-dienyl)butanamide]
< 150 nM: [1] | [2] | [3] | [4] | [5]

CC1=C(C)C(=O)C(CCCC(=O)Nc2ccccc2F)=C(C)C1=O [N-(2-fluorophenyl)-4-(2,4,5-trimethyl-3,6-dioxocyclohexa-1,4-dienyl)butanamide]
< 150 nM: [1] | [2] | [3] | [4] | [5]

CC1=C(C)C(=O)C(CCCC(=O)NCc2ccc(Cl)cc2)=C(C)C1=O [N-(4-chlorobenzyl)-4-(2,4,5-trimethyl-3,6-dioxocyclohexa-1,4-dienyl)butanamide]
< 150 nM: [1] | [2] | [3] | [4] | [5]

CC1=C(C)C(=O)C(CCCC(=O)N2CCc3ccccc3C2)=C(C)C1=O [2-(4-(3,4-dihydroisoquinolin-2(1H)-yl)-4-oxobutyl)-3,5,6-trimethylcyclohexa-2,5-diene-1,4-dione]
< 150 nM: [1] | [2] | [3] | [4] | [5]

CC1=C(C)C(=O)C(CCCC(=O)N2Cc3ccccc3C2)=C(C)C1=O [2-(4-(isoindolin-2-yl)-4-oxobutyl)-3,5,6-trimethylcyclohexa-2,5-diene-1,4-dione]
< 150 nM: [1] | [2] | [3] | [4] | [5]

CC1=C(C)C(=O)C(CCCC(=O)NCc2ccccc2)=C(C)C1=O [N-benzyl-4-(2,4,5-trimethyl-3,6-dioxocyclohexa-1,4-dienyl)butanamide]
< 150 nM: [2] | [3] | [4] | [5]

CC1=C(C)C(=O)C(CCCC(=O)NCc2cccc(F)c2)=C(C)C1=O [N-(3-fluorobenzyl)-4-(2,4,5-trimethyl-3,6-dioxocyclohexa-1,4-dienyl)butanamide]
< 150 nM: [2] | [4] | [5]

CC1=C(C)C(=O)C(CCCC(=O)NCCc2cccc(Cl)c2)=C(C)C1=O [N-(3-chlorophenethyl)-4-(2,4,5-trimethyl-3,6-dioxocyclohexa-1,4-dienyl)butanamide]
< 150 nM: [2] | [3] | [4] | [5]

CC1=C(C)C(=O)C(CCCC(=O)Nc2cccc(C#N)c2)=C(C)C1=O [N-(3-cyanophenyl)-4-(2,4,5-trimethyl-3,6-dioxocyclohexa-1,4-dienyl)butanamide]
< 150 nM: [1] | [2] | [3] | [5]

CC1=C(C)C(=O)C(CCNC(=O)C(O)c2ccc(C(F)(F)F)cc2)=C(C)C1=O (stereo not shown) [2-hydroxy-2-(4-(trifluoromethyl)phenyl)-N-(2-(2,4,5-trimethyl-3,6-dioxocyclohexa-1,4-dienyl)ethyl)acetamide]
< 150 nM: [1] | [2] | [3] | [5]

COc1ccc(CC(=O)NCCC2=C(C)C(=O)C(C)=C(C)C2=O)cc1 [2-(4-methoxyphenyl)-N-(2-(2,4,5-trimethyl-3,6-dioxocyclohexa-1,4-dienyl)ethyl)acetamide]
< 150 nM: [1] | [2] | [3] | [5]

CC1=C(C)C(=O)C(CCNC(=O)NCc2ccc(C(F)(F)F)cc2)=C(C)C1=O [1-(4-(trifluoromethyl)benzyl)-3-(2-(2,4,5-trimethyl-3,6-dioxocyclohexa-1,4-dienyl)ethyl)urea]
< 150 nM: [1] | [2] | [3] | [5]

CC1=C(C)C(=O)C(CCCC(=O)NCc2ccccc2F)=C(C)C1=O [N-(2-fluorobenzyl)-4-(2,4,5-trimethyl-3,6-dioxocyclohexa-1,4-dienyl)butanamide]
< 150 nM: [2] | [4] | [5]
